Source: PMC4750079, “Tackling amyloidogenesis in Alzheimer’s disease with A2V variants of Amyloid-β” (Scientific Reports, 2016)
Where a SMILES comes first, the peptide text is derived from it. [ ]: non-standard residue; d: D form.

Columns and labels:
Aβ1-42WT = target: T1, Aβ1-42WT (Homo sapiens, UniProt P05067); assay: Atomic force microscopy of Aβ1-42WT oligomerization; assay type: biochemical; conditions: Aβ1-42WT 100 μM co-incubated with peptide 1:4, pH 7.4, 4 °C, 24 h, AFM
T1 construct: Aβ1-42WT oligomers were formed following incubation of Aβ1-42WT at a final concentration of 100 μM; made in house; host or cells: chemical synthesis (solid-phase Fmoc), no expression host
Experimental: In polarized-light and EM studies, both peptides were used at 0.125 mM, molar ratio = 1:1 or 1:4 respectively, with 20 days incubation. […] E,F: Representative Tapping mode of AFM images as determined by amplitude error data of Aβ1-42WT oligomers. Aβ1-42WT peptide 100 μM in phosphate buffer 50 mM, pH 7.4 was incubated at 4 °C for 24 h alone (E) (Z range: -10/ + 10 mV) or in presence of Aβ1-6A2VTAT(D) (F) (Z range: -10/ + 25 mV). The molar ratio of Aβ1-42WT to Aβ1-6A2VTAT(D) was 1:4. Scale bar: 1 μm, inset: 200 nm. (G,H): height plot profiles obtained along different lines traced on the topographic AFM images.
Aβ1-42WT oligomers were formed following incubation of Aβ1-42WT at a final concentration of 100 μM in phosphate buffer 50 mM, pH 7.4 at 4 °C for 24 h, alone or in presence of Aβ1-6A2VTAT(D), at 1:4 molar ratio. Sample solutions were diluted to a final concentration of 10 μM of Aβ1-42WT with phosphate buffer and 50 μl of each solution was immediately added onto freshly cleaved mica at room temperature for 2 minutes. Samples were washed and dried under gentle nitrogen flow. AFM analyses were carried out on a Multimode AFM with a Nanoscope V system (Veeco/Digital Instruments). AFM images were analysed using the Scanning Probe Image Processor data analysis package. All the topographic patterns and SPIP characterization were verified via additional measurements on a minimum of five different, well separated areas.

SH-SY5Y cells = assay: Toxicity of peptides on differentiated SH-SY5Y cells (MTT test); assay type: cell-based, human; conditions: 24 h
Experimental: Figure 2 Analysis of the effects of Aβ1-6WT(D), Aβ1-6A2V(D) and Aβ1-6A2VTAT(D) on neurotoxicity in cell models. SH-SY5Y cells were differentiated with 10 μM retinoic acid. […] Comparison of cell viability was performed by Student t-test.
(§1) Toxicity studies with Aβ1-6WT(D), Aβ1-6A2V(D) or Aβ1-6A2VTAT(D) and the short peptides’ ability to inhibit the toxicity induced by Aβ1-42WT in SH-SY5Y cell cultures were analyzed following previously described protocols. Each experiment was performed in triplicate; the data provided were obtained as the mean of three independent assays.

APPswe/PS1dE9 mice = assay: Serum IgG against Aβ peptides after chronic treatment (ELISA); assay type: in vivo, mouse; conditions: once a week for 5 months, n = 9
Experimental: Figure 8 Serum levels of IgG against Aβ peptides after chronic treatment with Aβ1-6A2VTAT(D). To verify whether Aβ1-6A2VTAT(D) administration once a week for 5 months was associated with an immune response, we collected blood from mice before (T0) and at the end of the treatment (T2). Sera from saline (n = 8) and Aβ1-6A2VTAT(D) (n = 9) treated mice were tested induplicate using ELISA for the presence of IgG against Aβ1-6A2VTAT(D) (A), the full-length Aβ1-42 (B), Aβ1-6A2V (C) and TAT(D) (D).
Sera were collected from mice before (T0) and at the end of the treatment (5 months), and tested using ELISA for the presence of IgG against Aβ1-6A2VTAT(D), the full-length Aβ1-42, Aβ1-6A2V(D) and TAT(D) following previously described protocols for antigen-specific mouse IgG detection, except blocking buffer that was PBS 3% milk. Anti-Aβ1-42 IgG antibodies from 6E10 IgG clone (Covance), and sera from mice immunized with Aβ1-6A2VTAT(D) or with Aβ1-6A2V emulsified in Complete Freund’s adjuvant were used as positive controls.

[1] = Brain levels after intraperitoneal administration (HPLC-MS/MS); assay type: in vivo; conditions: mice
Experimental: APP23 mice (Harlan, Correzzana, Italy) were treated by intraperitoneal injection with Aβ1-6A2VTAT(D) (10 mg/kg) or vehicle (saline solution) and sacrificed 1 h or 24 h after the last treatment. Aβ1-6A2VTAT(D) was quantified in mouse brain using HPLC-MS/MS[45]. The stability of Aβ1-6A2VTAT(D) to protease digestion was also investigated by MALDI TOF MS (See Supplementary Information for details).
To verify Aβ1-6A2VTAT(D) distribution in vivo, and particularly its bioavailability in the brain, we determined Aβ1-6A2VTAT(D) levels in mice brains after i.p. injection at a dose of 10 mg/kg. Mice were sacrificed at two intervals (1 h, 24 h). Aβ1-6A2VTAT(D) was then quantified in mouse brain using HPLC-MS/MS.
The quantitative levels of Aβ1-6A2VTAT(D) in the brain were determined by following a previously described procedure ^4.
Supplementary Figure 4S Aβ1-6A2VTAT(D) levels in mouse brain (n=4). Data are reported as mean ± SEM of peptide/mg tissue. Animals were treated i.p. at a dose of 10 mg/kg. Animals were sacrificed 1 h or 24 h after last administration following 21 […] treatments (*p < 0.05 T1-1h vs T1-24h and Student’s t-test).

[2] = test system: Aβ1-42WT toxicity in SH-SY5Y cells; assay: Inhibition of the toxicity induced by Aβ1-42WT in SH-SY5Y cell cultures (MTT test); assay type: cell-based, human; conditions: differentiated SH-SY5Y, co-incubated with Aβ1-42WT, 24 h
Experimental: Figure 2 Analysis of the effects of Aβ1-6WT(D), Aβ1-6A2V(D) and Aβ1-6A2VTAT(D) on neurotoxicity in cell models. SH-SY5Y cells were differentiated with 10 μM retinoic acid. After 6 days the proper peptide was added to culture medium and cell viability was assessed after 24 h by MTT test. […] Conversely, Aβ1-42WT reduces cell viability by 35%. * Significance vs non-treated cells. (C,D) Both Aβ1-6WT(D) and Aβ1-6A2V(D) are able to counteract the toxic effect of Aβ1-42WT. […] Comparison of cell viability was performed by Student t-test.
as §1

T1 sequence (P05067 672-713 limits assumed): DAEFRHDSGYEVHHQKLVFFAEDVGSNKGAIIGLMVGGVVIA

With `CC(C)[C@@H](NC(=O)[C@H](N)CC(=O)O)C(=O)N[C@H](CCC(=O)O)C(=O)N[C@H](Cc1ccccc1)C(=O)N[C@H](CCCNC(=N)N)C(=O)N[C@H](Cc1c[nH]cn1)C(=O)NCC(=O)NCC(=O)NCC(=O)NCC(=O)NCC(=O)N[C@H](CCCNC(=N)N)C(=O)N[C@H](CCCCN)C(=O)N[C@H](CCCCN)C(=O)N[C@H](CCCNC(=N)N)C(=O)N[C@H](CCCNC(=N)N)C(=O)N[C@H](CCC(N)=O)C(=O)N[C@H](CCCNC(=N)N)C(=O)N[C@H](CCCNC(=N)N)C(=O)N[C@H](CCCNC(=N)N)C(=O)O` [Aβ1-6A2VTAT(D)] (H-[dD][dV][dE][dF][dR][dH]GGGGG[dR][dK][dK][dR][dR][dQ][dR][dR][dR]-OH; N-terminus assumed) the “diameter of very small globular structures (~70%)” value (Aβ1-42WT) was 5-8 nm, the “oligomeric structures of Aβ1-42WT detected” value (Aβ1-42WT) was “only rare oligomeric structures were detected” and the “toxicity at concentrations between 1 and 5 μM” value (SH-SY5Y cells; 1 to 5 μM) was “not toxic”. The “toxicity at concentrations higher than 5 μM” value (SH-SY5Y cells; higher concentrations) was “reduces cell viability at higher concentrations”, the “serum IgG against Aβ1-6A2V peptide” value (APPswe/PS1dE9 mice) was “did not induce production of IgG” and the “serum IgG against Aβ1-6A2VTAT(D)” value (APPswe/PS1dE9 mice) was “not negligible levels”. The “serum IgG against TAT(D)” value (APPswe/PS1dE9 mice) was 3 out of 9 mice displayed slightly increased levels, the “serum IgG against full-length Aβ” value (APPswe/PS1dE9 mice) was “not negligible levels” and the tissue level at time at 1 h ([1]; APP23, mouse, brain, ip, i.p. 10 mg/kg once a week for five months (21 weekly treatments), 1 h, HPLC-MS/MS, mean ± SEM, n=4, read-out: brain levels 1 h after last treatment) was 145 ± 38.3 ng/g. For the same compound, the tissue level at time at 24 h ([1]; APP23, mouse, brain, ip, i.p. 10 mg/kg once a week for five months (21 weekly treatments), 24 h, HPLC-MS/MS, mean ± SEM, n=4, read-out: brain levels 24 h after last treatment) was 62 ± 28.7 ng/g, the “ability to cross the BBB” value ([1]; i.p. administration) was “able to cross the BBB” and the “effect on toxicity induced by Aβ1-42WT” value [2] was “significant dose-dependent reduction of the toxicity”.
